Where a name gives a salt, the structure may show the parent alone.
Target: T1, dopamine transporter (DAT) (Homo sapiens, UniProt Q01959)
T1 construct: gene SLC6A3; human recombinant, CHO cells
Assay: Cerep DAT affinity assay, human recombinant CHO cells (called radioligand in the Discussion, functional in Methods)
Type: binding

T1 sequence (Q01959 whole entry): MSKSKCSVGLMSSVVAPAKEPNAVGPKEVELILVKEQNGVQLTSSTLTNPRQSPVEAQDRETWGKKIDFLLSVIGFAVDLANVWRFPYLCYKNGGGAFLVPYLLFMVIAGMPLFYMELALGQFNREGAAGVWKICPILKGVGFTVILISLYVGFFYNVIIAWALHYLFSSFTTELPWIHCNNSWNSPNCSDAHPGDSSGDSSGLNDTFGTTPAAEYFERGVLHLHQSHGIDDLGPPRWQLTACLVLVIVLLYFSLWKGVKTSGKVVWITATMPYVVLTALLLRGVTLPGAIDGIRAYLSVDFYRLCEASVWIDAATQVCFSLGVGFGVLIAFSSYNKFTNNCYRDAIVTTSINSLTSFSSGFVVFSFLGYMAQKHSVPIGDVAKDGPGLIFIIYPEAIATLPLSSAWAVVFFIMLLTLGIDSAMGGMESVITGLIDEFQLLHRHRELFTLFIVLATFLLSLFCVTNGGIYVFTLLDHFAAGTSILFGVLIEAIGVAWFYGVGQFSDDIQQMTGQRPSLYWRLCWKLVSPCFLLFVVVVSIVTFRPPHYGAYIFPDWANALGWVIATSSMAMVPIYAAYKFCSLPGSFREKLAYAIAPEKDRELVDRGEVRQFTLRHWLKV

Cc1[nH]c2ccc(Cl)cc2c1C1=CCNCC1 [EMD 386088, 5-chloro-2-methyl-3-(1,2,3,6-tetrahydro-4-pyridinyl)-1H-indole hydrochloride]
Ki: 41 nM
